Results from a melting point compilation (Tetko et al.; mined from patent text by program, amines drawn as free bases though some values may be those of a salt).

melting point | Structure (SMILES)
54 to 54.5 °C | CCOC(=O)n1c(SC(F)(F)F)cc(-c2ccc(F)cc2)c1-c1ccc(F)cc1
188 to 191 °C | COc1ccc(-c2cc3ccccc3[nH]2)cc1NC(N)=S
203 to 205 °C | CC(C)(C)OC(=O)c1ccsc1NC(=O)Nc1ccc(Oc2ccccc2)cc1
80 to 85 °C | CC(C)C[C@H](NC(=O)OCc1ccccc1Cl)C(=O)N[C@@H](Cc1ccccc1)C(=O)CSCc1ccco1
194 to 195 °C | CC(C)(C)OC(=O)c1ccc(NC2CCc3cc4nc(COCc5ccccc5)[nH]c(=O)c4cc32)cc1 (racemic)
185 to 186 °C | COCCc1nc2c(N)nc3ccccc3c2n1CCOCCN(C)C(=O)Nc1ccccc1
208 to 210 °C | Cc1ccc(C2CCN(Cc3ccc(COc4cccc5c4CN(C4CCC(=O)NC4=O)C5=O)cc3)CC2)cc1 (stereo unspecified)
235 to 236 °C | Cn1c2cc(Cl)ccc2c2c(C=O)nn(-c3ccccc3)c(=O)c21
177 to 178 °C | COc1cc(COc2nn(-c3ccccc3)cc2/C=C/C#N)ccc1OCc1nc(-c2ccco2)oc1C
144 to 146 °C | CCC(=O)NC1Cc2ccccc2C(c2ccccc2)C1 (stereo unspecified)
168 to 170 °C | NC(=O)C(=O)NC(C(=O)OC(c1ccccc1)c1ccccc1)c1ccco1 (stereo unspecified)
160 °C | CCOC(=O)c1ccc(OCCCC2CCN(c3ccc(-c4ccc(F)cc4)nn3)CC2)cc1
103 to 104 °C | CCOC(=O)C=Cc1ccc(OC(C)C)c(OC)c1
110 to 112 °C | C=C(C)COc1ccc2c(C)cc(=O)oc2c1C(=O)C=Cc1cccnc1
> 310 °C | O=c1[nH]c2sc(-c3ccccc3)nc2c2ccccc12
215 °C | Cc1noc(NC(=O)C(c2ccccc2)c2ccccc2)n1
87 to 89 °C | Cc1ccn(-c2ccc(-c3nc4cccnc4n3-c3ccc(CCNCC(O)COc4ccc(O)cc4)cc3)c(Cl)c2)n1 (stereo unspecified)
78 to 82 °C | COC(=O)CCCc1cc2cc(C(F)(F)F)ccc2n1S(=O)(=O)c1ccc2nc(C)oc2c1
137 to 138 °C | CCOCc1nc2cnc3cc(-c4ccccc4)ccc3c2n1CCOc1ccccc1
121 to 123 °C | Cc1c(-c2ccc(O)cc2)n(Cc2ccc(OCCN3CCCC(C)C3)cc2)c2ccc(O)cc12 (stereo unspecified)
155 to 157 °C | CCCCn1c(=O)c(NC(=O)Nc2c(C(C)C)cc(N(C)Cc3cccnc3)cc2C(C)C)c(-c2cccc(OC)c2)c2cccnc21

melting point | Structure (SMILES)
220 to 223 °C | CN1c2ccccc2N(C(=O)c2ccc(-c3ccccc3)cc2)Cc2cccnc21
186 to 187 °C | CCCCc1cc2ccccc2c(Oc2ccc(/C=C/C(=O)O)cc2)c1-c1ccc(OC)cc1
75.5 to 79 °C | CCCCc1nc2c(N)nc3ccccc3c2n1CCCCNS(=O)(=O)c1ccccc1
178 to 179 °C | COC(=O)N[C@H](C(=O)N[C@@H](Cc1ccccc1)[C@@H](O)CN(Cc1ccc(-c2nccs2)cc1)NC(=O)OC(C)(C)C)C(C)C
124 to 127 °C | OC(CCc1ccc2ccccc2c1)c1cnc2sc3c(n12)CCCCC3 (stereo unspecified)
126 to 129 °C | O=C1c2ccccc2C(=O)N1CCCC=NNc1ccc(S(=O)(=O)Nc2ccccc2)cc1
178 °C | Cc1ccc(Sc2c(-c3ccc(S(C)(=O)=O)cc3)cnn(-c3cccc(Cl)c3)c2=O)cc1
152 °C | CCCCCCc1nccc2c(CC(=O)O)cccc12
109 to 110 °C | CCCCCCNC(=O)Oc1ccc2oc3ccccc3c2c1
163 to 165 °C | CC(c1ccccc1)C(C(=O)c1ccc(Cl)cc1)n1cncn1 (stereo unspecified)
168 to 170 °C | N#CCC(O)(c1ccc(-c2ccccc2)cc1)c1ccc(-c2ccccc2)cc1
209 °C | COc1ccc(C=NNC(=O)c2ccc(O)cc2)cc1
49 °C | CCOC(=O)CC(=O)C=Cc1ccccc1
253 to 254 °C | O=C1c2ccc(C(F)(F)F)cc2C(=O)c2cc3ccccc3cc21
176 °C | COC(=O)C1=C(C)NN=C(c2cccc(Cl)c2)C1c1ccccc1 (stereo unspecified)
99 to 101 °C | COc1ccc(C(=O)O)c(OCc2ccccc2)c1
167 to 169 °C | COc1ccc(-c2nc(C(N)=O)cn2-c2ccc(OC)cc2)cc1
224 to 226 °C | CCCc1nc2cccc(C(=O)OC)c2n1Cc1ccc(-c2ccccc2-c2nc(=O)o[nH]2)cc1
179 to 181 °C | COc1ccc(C(=O)Nc2ccc(F)cc2)cc1NCc1cccs1
144 to 146 °C | CCCCCOc1cc(C(=O)O)cc([N+](=O)[O-])c1-c1ccccc1

The next lines start with the molecule.

Structure (SMILES) | melting point
CC(C)=NNc1cc2c(nn1)CCN(C(=O)c1ccc(Cl)cc1Cl)C2 | 211 to 214 °C
CC(=O)c1ccc(S(=O)(=O)NN2CCCCC2)cc1 | 137 to 139 °C
CC12C=CCC1C1CCC3=C(CCC(=O)C3)C1CC2 (stereo unspecified) | 112 to 116 °C
N#Cc1c(F)nn(-c2c(Cl)cc(C(F)(F)F)cc2Cl)c1N | 193 to 194 °C
CC1(C)CC(=O)c2c(SCCO)sc(-c3cc[nH]n3)c2C1 | 182 to 185 °C
COC(=O)c1c(SCc2ccccc2)n[nH]c1C | 109 to 110 °C
CC(C)c1cc2c(c(O)c1O)C1(C(=O)O)CCCC(C)(C)C1CC2 (stereo unspecified) | 193 to 199 °C
C=CCN1CCN(c2cc3c(cc2Cl)c(=O)c(C(=O)O)cn3CC)CC1 | 212 °C
COc1ccccc1C(=NO)c1sccc1Br | 129 to 130 °C
CCc1ccc(C=NNC(=O)c2ccc(O)cc2)o1 | 60.5 °C
O=C(Nc1ccc(C(CC2CCCC2)C(=O)Nc2nccs2)cc1)c1ccncc1 (stereo unspecified) | 225 to 230 °C
O=C(NCc1ccc(Cl)cc1)c1cnc2ccc(CN3CCOCC3)cc2c1O | 219 to 220 °C
CN1CCCC1Cc1ccc(N)cc1 (stereo unspecified) | 59 to 61 °C
NS(=O)(=O)c1ccc2c(c1)C(=O)C1(CCOC1=O)O2 (stereo unspecified) | 202 to 215 °C
CCc1cc(=O)c2c([nH]1)CCCN2 | 206 to 209 °C
C=CCOC(=O)c1c(C)nc2c(cnn2C/C=C\CC)c1N | 78 to 81 °C
CCCc1c(OCCOCCOCCOc2c(C(C)=O)ccc(OCC(=O)O)c2CCC)ccc(C(C)=O)c1O | 74 to 77 °C
Cc1cc(C)c(C=CC#N)c(Br)c1 | 95 to 96 °C
CC1Cc2cc3c(cc2C(c2ccc([N+](=O)[O-])cc2)=NN1)OCO3 (stereo unspecified) | 162 to 164 °C
Cc1cc([N+](=O)[O-])cc(N)c1[N+](=O)[O-] | 125 to 127 °C

Structure (SMILES) | melting point
N#CCOc1cccc2onc(N)c12 | 133 to 136 °C
Cc1cc([N+](=O)[O-])cnc1CCCC#N | 51.5 to 53 °C
CCOC(=O)COc1cc(C)c(C)c2c1CC(Br)C2=O (stereo unspecified) | 71 to 73 °C
NC(=O)c1cc(-c2cccc(Cl)c2)sc1N | 190 to 192 °C
O=[N+]([O-])c1ccnc(Nc2nccs2)c1 | 230 to 233 °C
O=C(ONC1CCCCC1)c1n[nH]c2c(=O)[nH]c3cc(Cl)ccc3c(=O)c12 | 220 °C
CCCOC1C(O)C(CO)OC1n1cnc2c(NC(=O)C(C)C)nc(NC(=O)C(C)C)nc21 (stereo unspecified) | 140 to 142 °C
CCOC(=O)/C(=N\OC12CCC(CC1)CC2)c1csc(N)n1 | 139 to 140 °C
Cc1[nH]c2ccccc2c1C(C)c1cccnc1 (stereo unspecified) | 139 to 141 °C
Oc1cc2cc(-c3ccccc3Cl)sc2c(Cl)c1Cl | 174 to 175 °C
O=[N+]([O-])c1cccc(OCCn2ccnc2)c1 | 52.5 to 55.5 °C
O=C1c2ccccc2-c2[nH]c(=O)cnc21 | > 300 °C
CCNC(=O)[C@@H]1Cc2ccccc2N1 | 92 to 95 °C
O=S(=O)(c1ccc(Cl)cc1)N1CCCC1c1ccc(F)cc1 (racemic) | 118 °C
CCOP(=O)(OCC)C(Sc1cc(Br)ccc1O)=P(OCC)(OCC)OCC | 118 to 120 °C
CC(C)OC(=O)CS(=O)(=O)C=C1SC=CS1 | 127 to 128 °C
CCCCCS(=O)(=O)NC(=O)CCCCc1cc(OCCCC)nn1Cc1ccc(Cl)cc1Cl | 91 to 93 °C
CC(C)(C)c1ccc(Cn2cc(C(=O)C(=O)O)c3cc(-c4ccc(C(C)(C)C)cc4)ccc32)cc1 | 111 to 112 °C
N[C@@]1(C(=O)O)C[C@H](NC(=O)Nc2cccc(Cl)c2)[C@H]2[C@H](C(=O)O)[C@H]21 (relative stereo) | > 250 °C
CC1(C)CCC2(C(=O)O)CCC3(C)C(=CCC4C5(C)CC(O)C(O)C(C)(CO)C5CCC43C)C2C1O (stereo unspecified) | 220 to 222 °C

Structure (SMILES) | melting point
CCCCNC(=N)NC(=O)NCCCC | 82 to 94 °C
Cc1noc(C)c1C(=O)Nc1ccc(-n2nc(C(F)(F)F)cc2C2CC2)cc1 | 170 to 172 °C
Cc1ccc(S(=O)(=O)OCC2CCc3nc(C)sc3C2)cc1 (stereo unspecified) | 70 to 71 °C
Nc1cc(=O)n(-c2c(Cl)cc(C(F)(F)F)cc2Cl)[nH]1 | 206 to 207 °C
COC(CCSCC=O)=NNS(=O)(=O)c1ccc(C)cc1 | 94 to 96 °C
CC(=O)OC1CCC2(C)C(CCC3C4CC5OC6(CC(C)C(C)(C)O6)C(C)(O)C5C4(C)CC(OC(C)=O)C32)C1 (stereo unspecified) | 253 to 256 °C
CCCCCCCN(Cc1ccc(CCCCCC)cc1)C(Nc1ccc(C(F)(F)F)cc1)=C1C(=O)COC1=O | 94 to 98 °C
CC(=O)c1ccc2cc(O)ccc2c1O | 195 to 200 °C
Cc1cc(N)ccc1NCCNC(N)=O | 143 °C
COc1cc(C=O)cc(OC)c1NC=O | 159 to 160 °C
c1ccc(NCCN2CCN(c3cccc4[nH]ccc34)CC2)nc1 | 153 to 160 °C
CC(C)(C)OC(=O)NCc1cccc2c1CN(C1CCC(=O)NC1=O)C2=O (stereo unspecified) | 239 to 241 °C
CC12CCC3C(CC=C4CC(O)CCC43C)C1CC=C2Br (stereo unspecified) | 162 to 164 °C
CN(C)Cc1c(O)ccc2cc(Br)ccc12 | 95 to 96 °C
CC(C)(CC1CCCC1)NC(=O)CN1C(=O)c2ccccc2C1=O | 159 to 160 °C
CN1c2ccccc2CN(C(=O)C(F)(F)F)c2ccccc21 | 104 to 106 °C
COC(=O)CCc1cc(C)c(O)c(C)c1 | 70 to 83 °C
Nc1cccc2c1Cc1ccccc1C2=O | 158 to 161 °C
C[C@H]1C[C@@](O)(c2cccc(S(=O)(=O)c3ccc4c(c3)CCC(=O)N4)c2)CCO1 | 178 to 180 °C
COC(=O)c1ccc2nc(Sc3nnc(C)s3)c(C(F)(F)F)nc2c1 | 151 to 152 °C
